{"source": "patent US5861263A", "about": "“Preparation of preserved entamoeba histolytica antigens without enzymatic inhibitors and their use in immunological methods” (Universidad Autonoma De Nuevo Leon, priority 1992, dated 1999)", "test_system": "proteases of Entamoeba histolytica crude extract", "assay": "Inhibition of crude amebic extract proteolytic activity (hide powder azure)", "assay_type": "biochemical, Entamoeba histolytica HK-9", "conditions": "4 mM iodoacetamide", "experimental": "The second method was carried out according to Rinderknecht et al., Clinica Chimica Acta., 21: 197-203 (1968). The activity corresponding to 6 million trophozoites was tested. Crude amebic extracts, IC:M and IC:MC were used. The samples were resuspended in 1.5 ml 0.05M Tris-HCL pH 7.5 containing 0.5% Triton X-100, and incubated for one hour at 4° C. and centrifuged at 11,000×g for 15 minutes. One ml. of the supernatant was added to 1 ml Tris-HCl containing 5 mg hide powder azure and 100 μl .2M cysteine. The samples were incubated at 37° C. for 1 hour and at the end of which the reaction was stopped by putting the tubes in an ice water bath. They were cold-centrifuged for 5 minutes at 450×g. The absorbency of the supernatants were determined at a wavelength of 600 nm. The former treatment was also done with samples that were incubated in the presence of SDS 2% or 2-ME 5% or 4 mM iodoacetamide. The positive control was taken as the activity obtained with 0.23 mg papain, which was activated with 0.7 mM 2-ME in Tris-HCl 0.05M at pH 8.0 at 4° C. for 10 minutes and then at 37° C. for 15 minutes with frequent stirring. Reaction mixtures without extracts were used as the negative control."}
{"smiles": "NC(=O)CI", "note": "[iodoacetamide]", "values": [{"measurement": "inhibition of the activity of the crude extract", "value": "approximately 70%"}]}
